In patent US4420482A, “1,4-Bis(acetylsalicyloyloxy)piperizine derivatives” (priority 1980, dated 1983):

Assays:
[1] = Protective activity on lethal shock induced by inhaled histamine; type: in vivo, guinea-pig; conditions: for Protected animals: 20 guinea-pigs; for antihistaminic activity: inhaled histamine shock, guinea-pig
From the text: Table 4 points out the protective activity exerted by S.1528 versus the lethal shock induced in the guinea-pig by an inhaled histamine.

[2] = Therapeutic index (ratio between toxic dose and active dose); type: in vivo; conditions: 2600:158 for S.1528; 1000:100 for acetylsalicylic acid
[3] = Antipyretic activity, hyperpyrexia induced by intramuscular brewers' yeast; type: in vivo, Sprague Dawley rat; conditions: for antipyretic activity: equimolecular doses, S.1528 vs acetylsalicylic acid; for mean temperature decrease: half dosage
[4] = Paw carrageenin edema in the rat (anti-inflammatory activity); type: in vivo, Sprague Dawley rat; conditions: for anti-inflammatory activity: equimolecular doses, S.1528 vs acetylsalicylic acid
Method: The anti-inflammatory activity of S.1528 was assessed in the paw carrageenin edema (220 Sprague Dawley male rats with a mean bodyweight of 150 g). […] It should be noted that, in the overall context of the present patent application the term "equimolecular doses" of S.1528 indicates all those doses that contain acetylsalicylic residues in a quantity equivalent to that of acetylsalicylic acid used as reference drug.

[5] = Analgesic activity, pressure-induced pain on paw inflamed by brewers' yeast (test of Randall and Selitto); type: in vivo, Sprague Dawley rat; conditions: for Pain sensitivity threshold (g) of inflamed paw: mean of 1 and 2 hr, P < 0.01 vs controls; for analgesic activity: equimolecular doses, S.1528 vs acetylsalicylic acid
Method: The analgesic activity of S.1528 was assessed on the sensitivity threshold of pain induced by a pressure exerted on a rat's paw inflamed by application of brewers' yeast (90 Sprague Dawley male rats with a mean bodyweight of 150 g).

[6] = Comparative oral acute toxicity in the mouse; type: in vivo
From the text: The new derivative of acetylsalicylic acid, ie S.1528, has been showing a quite mild toxicity associated with marked anti-inflammatory, antipyretic and analgesic activities as well as with an evident anti-histaminic activity. Moreover, unlike acetylsalicylic acid, the new compound appear to be entirely devoid of any gastric injuring effect.

[7] = Gastric ulcerogenic effect in the rat; type: in vivo, Sprague Dawley rat; conditions: for Incidence of gastric lesions (animals with lesions versus total treated): fasted 36 hours, killed 5 hours later

For `CC(=O)Oc1ccccc1C(=O)O` [Acetylsalicylic acid, acetylsalicylic acid, reference compound], the “Time of resistance” value ([1]; 110 mg/kg/os) was 66 ± 6.3 min, the Protected animals ([1]; 110 mg/kg/os) was 0 animals and the “Time of resistance” value ([1]; 221 mg/kg/os) was 54 min. For the same compound, the Protected animals ([1]; 221 mg/kg/os) was 0 animals, the “antihistaminic activity” value [1] was “entirely devoid of any antihistaminic activity” and the “therapeutic index (ratio between the toxic dose and the active dose)” value [2] was 10. The “antipyretic activity” value [3] was “quite the same antipyretic activity”, the mean temperature decrease ([3]; 75 mg/kg/os) was 0.4 degrees centigrades and the “Comparative edema decrease in the various groups of untreated control animals” value (“Comparative edema decrease” for short) ([4]; 55 mg/kg/os, P ns) was -28. The “Comparative edema decrease” value ([4]; 110 mg/kg/os, P <0.01) was -44, the “Comparative edema decrease” value ([4]; 221 mg/kg/os, P <0.01) was -79 and the “anti-inflammatory activity” value [4] was “quantitatively superimposable anti-inflammatory activity”. For the same compound, the “Threshold percent increase vs. controls” value ([5]; 110 mg/kg/os) was 36.2%, the “Pain sensitivity threshold (g) of inflamed paw” value (“Pain sensitivity threshold (g)” for short) ([5]; 110 mg/kg/os) was 122.6 ± 7.1 g and the “Threshold percent increase vs. controls” value ([5]; 221 mg/kg/os) was 71.2%. For the same compound, the “Pain sensitivity threshold (g)” value ([5]; 221 mg/kg/os) was 154.1 ± 5.7 g, the “analgesic activity” value [5] was “quantitatively similar activity” and the “Mortality observed (7 days)” value ([6]; 250 mg/kg/os) was 0. The “Mortality observed (7 days)” value ([6]; 500 mg/kg/os) was 0, the “Mortality observed (7 days)” value ([6]; 750 mg/kg/os) was 4/20 and the “Mortality observed (7 days)” value ([6]; 1000 mg/kg/os) was 10/20. The “Mortality observed (7 days)” value ([6]; 1250 mg/kg/os) was 14/20, the “Mortality observed (7 days)” value ([6]; 1500 mg/kg/os) was 20/20 and the “Mortality observed (7 days)” value ([6]; 1750 mg/kg/os) was 10/10. The “oral LD 50” value ([6]; oral, 10080 min) was 1000 mg/kg.

With `CC(=O)Oc1ccccc1C(=O)OCCN1CCN(CCOC(=O)c2ccccc2OC(C)=O)CC1` [S.1528, 1,4-BIS-[2-(ACETYLSALICYLOYLOXY)ETHYL] PIPERAZINE] the “Percent Protection” value ([1]; 158 mg/kg/os) was 60%, the “Time of resistance” value ([1]; 158 mg/kg/os) was 523 min and the Protected animals ([1]; 158 mg/kg/os) was 12 animals. For the same compound, the “Percent Protection” value ([1]; 317 mg/kg/os) was 100%, the “Time of resistance” value ([1]; 317 mg/kg/os) was > 720 min and the Protected animals ([1]; 317 mg/kg/os) was 20 animals. The ED50 ([1]; Cavia porcellus, read-out: dose that protects 50 percent of the guinea-pigs from the onset of a shock due to histamine) was 158 mg/kg, the “antihistaminic activity” value [1] was “evident antihistaminic activity” and the “Mean number of gastric ulcerations (mm)” value ([7]; 158 mg/kg, os) was 0 mm. The “Incidence of gastric lesions (animals with lesions versus total treated)” value ([7]; 158 mg/kg, os) was 0/20, the “Mean number of gastric ulcerations (mm)” value ([7]; 317 mg/kg, i.p.) was 0 mm and the “Incidence of gastric lesions (animals with lesions versus total treated)” value ([7]; 317 mg/kg, i.p.) was 0/20. For the same compound, the “Mean number of gastric ulcerations (mm)” value ([7]; 317 mg/kg, os) was 0 mm, the “Incidence of gastric lesions (animals with lesions versus total treated)” value ([7]; 317 mg/kg, os) was 0/20 and the “gastric injuring effect” value ([7]; equimolecular doses, rat) was “no gastric injuring effect”. For the same compound, the “therapeutic index (ratio between the toxic dose and the active dose)” value [2] was 16.45, the “antipyretic activity” value [3] was “quite the same antipyretic activity” and the mean temperature decrease ([3]; 118.5 mg/kg/os) was 0.4 degrees centigrades. The “Comparative edema decrease” value ([4]; 79 mg/kg/os, P ns) was -23, the “Comparative edema decrease” value ([4]; 158 mg/kg/os, P <0.01) was -52 and the “Comparative edema decrease” value ([4]; 317 mg/kg/os, P <0.01) was -83. The “anti-inflammatory activity” value [4] was “quantitatively superimposable anti-inflammatory activity”, the “Threshold percent increase vs. controls” value ([5]; 158 mg/kg/os) was 41.3% and the “Pain sensitivity threshold (g)” value ([5]; 158 mg/kg/os) was 127.2 ± 6.3 g. For the same compound, the “Threshold percent increase vs. controls” value ([5]; 317 mg/kg/os) was 69.1%, the “Pain sensitivity threshold (g)” value ([5]; 317 mg/kg/os) was 152.2 ± 8.4 g and the “analgesic activity” value [5] was “quantitatively similar activity”. The “Mortality observed (7 days)” value ([6]; 750 mg/kg/os) was 0/10, the “Mortality observed (7 days)” value ([6]; 1000 mg/kg/os) was 0/10 and the “Mortality observed (7 days)” value ([6]; 1500 mg/kg/os) was 0/20. The “Mortality observed (7 days)” value ([6]; 1750 mg/kg/os) was 0/20, the “Mortality observed (7 days)” value ([6]; 2000 mg/kg/os) was 4/20 and the “Mortality observed (7 days)” value ([6]; 2250 mg/kg/os) was 5/20. For the same compound, the “Mortality observed (7 days)” value ([6]; 2500 mg/kg/os) was 8/20, the “Mortality observed (7 days)” value ([6]; 2750 mg/kg/os) was 12/20 and the “Mortality observed (7 days)” value ([6]; 3000 mg/kg/os) was 16/20. It also gave an LD50 at 168 h ([6]; in vivo, oral, read-out: oral LD 50) of ~2600 mg/kg.
